{"source": "paper PMC5382548", "about": "(Scientific Reports, 2015)", "key": {"[1]": {"tested_on": "mouse KRAS promoter", "design": "method as in PMID 16687659", "settings": "3–20 μM 24 hours prior to transfection; cited from earlier work"}, "[2]": {"tested_on": "p21^KRAS protein in HCT116 cells", "experiment": "p21KRAS protein immunoblot, HCT116", "format": "cell-based, human", "settings": "IC50 concentration, 72 h; cell line not given", "procedure": "(a) KRAS mRNA steady-state expression was evaluated by Taqman Real-time RT-PCR using specific Taqman Assays for KRAS and β-Actin for normalization. KRAS mRNA steady-state expression levels were calculated by the ΔΔCt method, using DMSO (vehicle control) for calibration; and (b) KRAS protein steady-state expression evaluated by immunoblot relative to control (DMSO vehicle) Results are expressed as mean ± SEM of at least three independent experiments; *p < 0.05 and §p < 0.01 from DMSO (vehicle control).\nIn agreement with its reported capacity to accumulate in cytoplasm, bind to UTR1 and UTR2 RNA G4[14][20] and inhibit NRAS translation, TMPyP4 reduced the levels of p21^KRAS by ~75% in HCT116 cells. […]\nSamples were homogenized in ice-cold 1:1 solution of buffer A [10 mm Tris•HCl pH 7.6, 5 mm MgCl2, 1.5 mm KOAc, 2 mm dithiothreitol (DTT), and Halt Protease and Phosphatase inhibitor cocktail, EDTA-free (#78445, Thermo Scientific)] and buffer 2X (10 mm Tris•HCl pH 7.6, 1% Nonidet-P40, and Halt Protease and Phosphatase inhibitor cocktail), by vigorous vortexing and incubated on ice for 30 min. […] Protein concentrations were determined using the BioRad protein assay kit according to the manufacturer’s instructions. Steady-state levels of KRAS protein were determined by immunoblot analysis. […] Steady-state protein levels were expressed as mean ±SEM from at least three independent experiments."}, "[3]": {"tested_on": "HT21 (DNA, G4) GGGTTAGGGTAGGGTTAGGG", "experiment": "circular dichroism", "settings": "60 mM K+; K-cacodylate pH 7.4, 25 °C; hybrid G4 changes to antiparallel"}, "[4]": {"tested_on": "KRAS21R G4", "experiment": "FRET melting competition assay, labelled KRAS21R", "format": "binding, human", "settings": "ligand 1 μM, labelled KRAS21R 0.2 μM", "procedure": "To assess selectivity of the IQc compounds 2d and 3e to different DNA sequences, we performed competitive FRET experiments with 0.2 μM of labelled KRAS21R and F21T G4 and increasing concentrations of two non-fluorescent competitors, 26mer ds-DNA or the human telomeric sequence (HT21). A decrease in ΔTm indicates the displacement of the ligand from labelled G4 by the competitor DNA.\nFigure 3 FRET melting competition assay data for (a) 2d and (b) 3e (1 μM) in complex with KRAS21R and F21T G4s (0.2 μM), with increasing concentrations of non-labeled 26ds, HT21 or KRAS21R (0.4 to 25 μM) competitor, in K-cacodylate buffer (pH 7.4, 60 mM K^+).\nOligonucleotide sequences were purchased from Eurofins MWG Synthesis GmbH, Germany or STAB VIDA Genomics Lab, Caparica, Lisbon, Portugal. The labelled oligonucleotides used in the FRET assays had attached the donor fluorophore FAM (6-carboxyfluorescein) and the acceptor fluorophore TAMRA (6-carboxytetramethylrhodamine): KRAS21R: 5′-FAM-[…]-TAMRA-3′; KRAS32R: 5′-FAM-[…]-TAMRA-3′; UTR-1: 5′-FAM-GCGGCGGCGGAGG-TAMRA-3′; UTR-2: 5′-FAM-[…]-TAMRA-3; T-Loop:5′-FAM-[…]-TAMRA-3′; F21T: 5′-FAM-[…]-TAMRA-3′. Non-labelled oligonucleotides were used in FRET competition assays and in the spectroscopic studies: ds26: - d(5′-CAATCGGATCGAATT CGATCCGATTG-3′); KRAS21R: 5′-[…]-3′; HT21: 5′-[…]-3′. […]"}, "[5]": {"tested_on": "KRAS21R (DNA, G4) AGGGCGGTGTGGGAAGAGGGA", "experiment": "spectrofluorimetric titration, one-site saturation fit", "settings": "60 mM K+; K-cacodylate pH 7.4, 25 °C; 1 μM compound; SD ≤ 0.2 × 10^6"}}, "data": [{"compound": "C[n+]1ccc(-c2c3nc(c(-c4cc[n+](C)cc4)c4ccc([nH]4)c(-c4cc[n+](C)cc4)c4ccc([nH]4)c(-c4cc[n+](C)cc4)c4nc2C=C4)C=C3)cc1", "note": "[TMPyP4, reference compound]", "values": [{"measurement": "Reduction of mouse KRAS promoter activity", "setting": "[1]", "result": 80, "unit": "%"}]}, {"compound": "CCN(CC)CCCNc1ccc2c(c1)c1[nH]c3ccccc3c1c[n+]2C", "note": "[2d]", "values": [{"measurement": "KRAS protein levels reduced to (% remaining)", "setting": "[2]", "result": "~ 50%"}]}, {"compound": "CCN(CC)CCCNc1ccc2c(c1)[nH]c1c2c[n+](C)c2ccc(NCCCN(CC)CC)cc12.[Cl-]", "note": "[3e]", "values": [{"measurement": "binding", "setting": "[3]", "result": "yes"}, {"measurement": "Concentration of HT21 required to displace ligand from its complex with KRAS21R", "setting": "[4]", "result": "> 10", "unit": "µM"}, {"measurement": "Fold higher concentration of HT21 required to displace ligand from its complex with KRAS21R", "setting": "[4]", "result": "more than 50 fold"}]}, {"compound": "Cn1cc2c3ccccc3nc-2c2cc(Br)ccc21", "note": "[2a, 2-bromo-5-methyl-indolo[3,2-c]quinoline]", "values": [{"measurement": "Ka", "setting": "[5]", "result": "1.7e+06", "unit": "M⁻¹"}]}]}
